Values quoted from earlier work, collected in US8883831B2, “Compositions and methods for minimizing or reversing agonist-induced desensitization” (PharmoRx Therapeutics, Inc., priority 2008, dated 2014).

Experiments:
[1] = target: pentapeptide segment at the carboxy terminal of Filamin A (Homo sapiens, UniProt P21333); conditions: read-out: binding affinity
[2] = system: chronic pain model in intact rodents; conditions: ultra-low dose, absence of exogenously administered opioid agonists

Chain of pentapeptide segment at the carboxy terminal of Filamin A (P21333 whole entry): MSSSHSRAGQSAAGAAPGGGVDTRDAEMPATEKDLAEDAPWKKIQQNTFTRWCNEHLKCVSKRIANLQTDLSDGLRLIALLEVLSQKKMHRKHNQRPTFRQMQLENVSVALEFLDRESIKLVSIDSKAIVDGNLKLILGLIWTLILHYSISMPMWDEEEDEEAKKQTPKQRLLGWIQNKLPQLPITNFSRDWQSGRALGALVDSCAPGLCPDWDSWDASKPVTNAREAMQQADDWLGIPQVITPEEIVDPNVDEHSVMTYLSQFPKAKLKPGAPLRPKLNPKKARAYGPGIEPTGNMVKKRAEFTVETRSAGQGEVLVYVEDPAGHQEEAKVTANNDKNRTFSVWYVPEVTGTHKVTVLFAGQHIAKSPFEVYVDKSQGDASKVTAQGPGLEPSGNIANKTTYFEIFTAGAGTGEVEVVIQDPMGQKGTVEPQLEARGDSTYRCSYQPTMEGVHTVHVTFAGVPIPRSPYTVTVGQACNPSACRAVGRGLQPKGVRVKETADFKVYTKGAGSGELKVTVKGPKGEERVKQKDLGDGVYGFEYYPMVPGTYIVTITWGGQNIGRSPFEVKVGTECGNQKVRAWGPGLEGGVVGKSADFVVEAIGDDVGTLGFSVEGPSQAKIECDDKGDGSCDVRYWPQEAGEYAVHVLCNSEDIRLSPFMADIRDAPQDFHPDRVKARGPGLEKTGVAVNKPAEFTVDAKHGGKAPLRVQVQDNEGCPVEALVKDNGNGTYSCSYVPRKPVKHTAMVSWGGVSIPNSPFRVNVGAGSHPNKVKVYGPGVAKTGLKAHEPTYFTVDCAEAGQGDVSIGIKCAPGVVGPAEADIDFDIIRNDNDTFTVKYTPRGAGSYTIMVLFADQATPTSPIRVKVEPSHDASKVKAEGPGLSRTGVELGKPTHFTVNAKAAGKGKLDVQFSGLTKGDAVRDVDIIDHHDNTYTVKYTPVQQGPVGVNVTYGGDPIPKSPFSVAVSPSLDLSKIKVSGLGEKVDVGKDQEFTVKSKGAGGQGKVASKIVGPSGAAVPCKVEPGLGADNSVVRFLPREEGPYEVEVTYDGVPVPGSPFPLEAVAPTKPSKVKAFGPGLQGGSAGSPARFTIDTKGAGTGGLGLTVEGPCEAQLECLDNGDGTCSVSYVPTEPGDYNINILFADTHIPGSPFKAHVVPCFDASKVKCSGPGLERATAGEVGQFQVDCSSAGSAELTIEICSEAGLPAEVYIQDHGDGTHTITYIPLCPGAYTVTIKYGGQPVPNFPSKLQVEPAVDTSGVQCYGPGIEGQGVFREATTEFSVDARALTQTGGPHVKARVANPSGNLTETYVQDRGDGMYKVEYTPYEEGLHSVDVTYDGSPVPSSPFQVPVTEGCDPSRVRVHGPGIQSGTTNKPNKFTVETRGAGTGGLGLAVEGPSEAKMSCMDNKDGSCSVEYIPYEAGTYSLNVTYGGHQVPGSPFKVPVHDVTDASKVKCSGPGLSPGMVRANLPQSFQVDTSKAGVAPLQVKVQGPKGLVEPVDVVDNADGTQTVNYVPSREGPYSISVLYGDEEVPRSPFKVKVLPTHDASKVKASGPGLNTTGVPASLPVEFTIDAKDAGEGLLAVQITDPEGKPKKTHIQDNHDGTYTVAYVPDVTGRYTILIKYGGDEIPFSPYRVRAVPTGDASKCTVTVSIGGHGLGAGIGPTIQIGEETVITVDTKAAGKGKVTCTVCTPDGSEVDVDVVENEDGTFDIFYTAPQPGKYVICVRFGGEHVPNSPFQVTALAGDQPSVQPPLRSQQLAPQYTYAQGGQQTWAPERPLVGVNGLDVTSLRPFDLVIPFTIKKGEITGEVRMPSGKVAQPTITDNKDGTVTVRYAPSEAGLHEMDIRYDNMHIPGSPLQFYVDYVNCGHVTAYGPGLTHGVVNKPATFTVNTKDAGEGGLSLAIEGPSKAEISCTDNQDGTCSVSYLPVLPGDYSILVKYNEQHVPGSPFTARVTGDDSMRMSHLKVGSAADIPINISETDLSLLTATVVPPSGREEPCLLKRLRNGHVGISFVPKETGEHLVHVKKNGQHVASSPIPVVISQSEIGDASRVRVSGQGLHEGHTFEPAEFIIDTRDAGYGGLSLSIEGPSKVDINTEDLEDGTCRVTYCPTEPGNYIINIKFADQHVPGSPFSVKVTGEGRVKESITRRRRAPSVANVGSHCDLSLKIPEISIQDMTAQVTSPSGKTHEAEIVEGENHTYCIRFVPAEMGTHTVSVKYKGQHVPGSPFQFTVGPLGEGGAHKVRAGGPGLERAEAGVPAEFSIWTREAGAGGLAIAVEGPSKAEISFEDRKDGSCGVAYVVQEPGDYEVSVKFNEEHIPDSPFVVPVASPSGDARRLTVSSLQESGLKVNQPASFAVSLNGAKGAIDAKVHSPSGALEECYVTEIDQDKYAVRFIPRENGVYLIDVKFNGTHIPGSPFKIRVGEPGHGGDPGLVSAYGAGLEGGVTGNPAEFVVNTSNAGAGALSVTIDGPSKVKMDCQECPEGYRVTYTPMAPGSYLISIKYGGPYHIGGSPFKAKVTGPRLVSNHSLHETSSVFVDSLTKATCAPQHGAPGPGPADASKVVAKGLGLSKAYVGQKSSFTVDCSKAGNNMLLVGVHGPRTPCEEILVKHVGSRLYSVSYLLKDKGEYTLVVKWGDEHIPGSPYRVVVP

Question: Which Kd [1] does the source give for `O=C1CC[C@@]2(O)[C@H]3Cc4ccc(O)c5c4[C@@]2(CCN3CC2CC2)[C@H]1O5` [naltrexone] here?
Answer: 4 pM

Question: And the “effect in chronic pain model” value [2]?
Answer: no effect
